“Also recorded” adds a separate entry of the source.
How the values were obtained:
Creb312 [1] = assay: Formation of nuclear Creb312 in Ad.Creb312(FL)-transduced NRVM under biaxial mechanical stretch after pathway inhibition (immunoblot); format: cell-based, rat; settings: NRVM with Ad.Creb312(FL), inhibitor 30 min prior to 10% pulsary (cyclic) biaxial stretch, Akt1/2 inhibitor 1 μM, SH6 10 μM, LY294002 10 μM, PD98059 25 μM, U0126 10 μM, SP600125 10 μM, PP2 1 μM, SB203580 25 μM, wortmannin 200 nM, FIG. 5
Experimental: Biaxial mechanical stretch experiments. Freshly isolated NRVM were seeded at 10^6 on fibronectin-coated silicon membranes and transduced with Ad.Creb312(FL) 48 h later. 2 days later, biaxial mechanical stretch experiments were carried out on devices as previously described (Ref, Andre Kleber paper) for indicated times. Cells were rinsed once in ice-cold PBS, harvested, lysed and processed for immunoblot. For inhibition experiments, NRVM were treated with chemical inhibitors for 30 min prior to stretching. All chemical inhibitors used were from Calbiochem except Akt1/2 inhibitor and wortmannin (Sigma). Concentrations used were: Akt1/2 inhibitor (1 μM), SH6 (10 μM), LY294002 (10 μM), PD98059 (25 μM), U0126 (10 μM), SP600125 (10 μM), PP2 (1 μM), SB203580 (25 μM), wortmannin (200 nM). […]
Immunoprecipitation and Immunoblot. For immunoprecipitation, 10 μg pcDNA3/3xFlag-Creb312(N) were transfected into COS7 cells with Fugene HD (Roche). 48 h later, cells were washed once with PBS, harvested and lysed in 50 mM Tris-HCl pH 7.4, 150 mM NaCl, 1% Triton X-100 and Complete Protease Inhibitor (Roche) on ice. After centrifugation at 13000 rpm, 30 min, 4C, the supernatant was used for subsequent experiments. Embryonic hearts of various stages were homogenized in ice-cold PBS with a Rotor-Stator Homogenizer, and nuclear extracts were prepared from the cell pellets using the NE-PER Nuclear and Cytoplasmic Extraction Reagents (Pierce). Protein concentrations were determined with the Protein Assay Dye Reagent (Bio-Rad). 1.8 mg 3× Flag-Creb312(N) protein extract and 25 μg heart nuclear extract were rotated with 40 μl anti-Flag M2 Affinity gel (Sigma) at 4C over night. Resins were washed twice each with 50 mM Tris-HCl pH 7.4, 150 mM NaCl with or without 0.1% Triton X-100, eluted with 15 μg 3× Flag peptide (Sigma), and 25 μl or 75 μl eluate were loaded on 10% SDS-polyacrylamide gels for subsequent immunoblot analysis. For immunoblots of mechanical stretch- or chemically treated-cardiomyocytes, 25 μg total cell extract were separated on 10% SDS-polyacrylamide gels. Primary antibodies used were: anti-Flag M2 (Sigma, 1:200), anti-HA (Bethyl, 1:4000), anti-Creb312 (1:2000), anti-phospho (Ser473)Akt (Cell Signaling, 1:1000), anti-phospho (Thr308)Akt (Cell Signaling, 1:1000), anti-Akt (Cell Signaling, 1:1000), anti-phospho p44/42 (Cell Signaling, 1:1000). Secondary antibodies (horseradish peroxidase-conjugated rabbit anti-mouse IgG or goat anti-rabbit IgG, Dako) were used at 1:10^5′ and immunoblots were developed with SuperSignal West Femto Substrate (Pierce).

Creb312 [2] = assay: Proteolytic cleavage of HA-tagged full-length Creb312 to the nuclear form in NRVM after chemical ER stressors or hypertrophic agonists (Western Blot, anti-HA); format: cell-based, rat
Experimental: Isolation of neonatal rat ventricular cardiomyocytes. All procedures described below were conducted according to the guidelines of the Harvard University Animal Care and Use Committee. Ventricular myocytes were isolated from 2 day-old Sprague Dawley rats as briefly described. Excised ventricular tissue was agitated in a 0.1% trypsin solution cooled to 4° C. for approximately 14 hours. Trypsinized ventricles were dissociated into their cellular constituents via serial exposure to a 0.1% solution of collagenase type II at 37° C. for 2 minutes. The myocyte portion of the cell population was enriched by passing the dissociated cell solution through a nylon mesh with 40 μm pores, and then pre-plating twice for 45 minutes each time. 10^6 isolated myocytes were seeded onto silicon membranes coated with fibronectin in culture medium consisting of M199 base supplemented with 10% heat-inactivated Fetal Bovine Serum, 10 mM HEPES, 20 mM glucose, 2 mM L-glutamine, 1.5 ? M vitamin B-12, and 50 U/ml penicillin. On the second day of culture, the serum concentration of the medium was reduced to 2%, and the medium was changed every 48 hours thereafter.
Adenovirus preparation and infection. Replication-defective recombinant adenoviruses expressing GFP and either HA-Creb312(FL) or HA-Creb312(N) under the control of CMV in bicistronic cassettes were generated using the AdEasy XL system (Stratagene). Briefly, HA-Creb312(FL) or HA-Creb312(N) were subcloned into the adenovirus shuttle vector pAdTrack-CMV (generous gift by Bert Vogelstein, Ref), and these constructs used for the generation of Ad.Creb312(FL) or Ad.Creb312(N), respectively, according to manufacturer's instructions. Adenoviral shuttle constructs for the expression of miRNAs against rat ILK, rat FAK, rat Creb312 under the control of hCMV were obtained by subcloning the XbaI/HindIII fragments of the respective miRNA expression constructs in pcDNA6-GW/EmGFP-miR (Invitrogen) into pShuttle (Stratagene). The recombinant adenoviruses were concentrated and purified by CsCl gradient ultracentrifugation, and the virus titer was determined through plaque assay.
NRVM were transduced with adenovirus at 5 moi (multiplicity of infection) in serum-free M199 for 90 min and maintained for 48 h in M-199/2% FCS before mechanical stretch, hypoxia experiments or treatment with chemicals.
Treatment with chemical ER stressors, cardiac hypertrophic agonists, hypoxic stress. 5×10^5 NRVM were plated in 6 well plates, transduced with Ad.Creb312(FL) and treated 48 h afterwards with tunicamycin (Tm), thapsigargin (Tg), brefeldin A (BFA) or DTT (1 mM) for 30 min and harvested for immunoblot analyses. Alternatively, NRVM were treated with phenylephrine, angiotensin II, endothelin or isoproterenol for 24 h. For hypoxic stress, 5×10^5 NRVM were plated in 6 well plates and switched from 20% O2/5% CO2 to 0.1% O2/5% CO2 for the indicated times.
Immunoprecipitation and Immunoblot. For immunoprecipitation, 10 μg pcDNA3/3xFlag-Creb312(N) were transfected into COS7 cells with Fugene HD (Roche). 48 h later, cells were washed once with PBS, harvested and lysed in 50 mM Tris-HCl pH 7.4, 150 mM NaCl, 1% Triton X-100 and Complete Protease Inhibitor (Roche) on ice. After centrifugation at 13000 rpm, 30 min, 4C, the supernatant was used for subsequent experiments. Embryonic hearts of various stages were homogenized in ice-cold PBS with a Rotor-Stator Homogenizer, and nuclear extracts were prepared from the cell pellets using the NE-PER Nuclear and Cytoplasmic Extraction Reagents (Pierce). Protein concentrations were determined with the Protein Assay Dye Reagent (Bio-Rad). 1.8 mg 3× Flag-Creb312(N) protein extract and 25 μg heart nuclear extract were rotated with 40 μl anti-Flag M2 Affinity gel (Sigma) at 4C over night. […]

ANF promoter region = assay: ANF promoter regulated luciferase gene expression assay; format: cell-based; settings: 700 bp promoter region of ANF; 50 ng DNA; FIG. 8B
Excerpt: (§1) FIGS. 8A-8D show the nuclear form of Creb312 activates BNP regulated luciferase gene expression.

BNP promoter region = assay: BNP promoter regulated luciferase gene expression assay; format: cell-based; settings: for BNP regulated luciferase gene expression: 10 ng DNA
Excerpt: as §1

[3] = NRVM transduced with Ad.Creb312(FL), ER stress-inducing chemicals, within one hour, Western Blot anti-HA
[4] = NRVM expressing HA-Creb312(FL), 24 h exposure to hypertrophic agonists, FIG. 4D

C[S+]([O-])c1ccc(-c2nc(-c3ccncc3)c(-c3ccc(F)cc3)[nH]2)cc1 (centres unmarked) [SB203580]
effect on formation of the proteolytically cleaved, nuclear form of Creb312 in response to mechanical stretch (Creb312 [1]): did not show any effect; also recorded: did not inhibit

COc1cccc(-c2cc(=O)c3ccccc3o2)c1N [PD98059]
effect on formation of the proteolytically cleaved, nuclear form of Creb312 in response to mechanical stretch (Creb312 [1]): did not show any effect; also recorded: did not inhibit

CC(C)(C)n1nc(-c2ccc(Cl)cc2)c2c(N)ncnc21 [PP2]
effect on formation of the proteolytically cleaved, nuclear form of Creb312 in response to mechanical stretch (Creb312 [1]): did not show any effect; also recorded: did not inhibit

CCCC(=O)Nc1ncnc2c1ncn2[C@@H]1O[C@@H]2COP(=O)(O)O[C@H]2[C@H]1OC(=O)CCC [dbcA]
formation of nuclear Creb312 in response to cAMP treatment (Creb312 [2]; NRVM, data not shown): nuclear Creb312 is formed

O=c1[nH]c2ccccc2n1C1CCN(Cc2ccc(-c3nc4cc5[nH]cnc5cc4nc3-c3ccccc3)cc2)CC1 [Akt1/2]
effect on formation of the proteolytically cleaved, nuclear form of Creb312 in response to mechanical stretch (Creb312 [1]): complete ablation | effect on formation of the proteolytically cleaved, nuclear form of Creb312 in response to mechanical stretch (Creb312 [1]; listed as Akt1/2 Inh): completely inhibited

C/C=C(/C)C(=O)O[C@H]1C(C)=C2[C@H]([C@@H]1OC(=O)CCCCCCC)[C@@](C)(OC(C)=O)C[C@H](OC(=O)CCC)[C@@]1(O)[C@H]2OC(=O)[C@@]1(C)O [thapsigargin]
proteolytic cleavage of Creb312 (formation of the nuclear form) (Creb312 [2]; [3]): caused proteolytic cleavage of Creb312

CC[C@H](C)[C@H](NC(=O)[C@H](CC(=O)O)NC(=O)[C@H](CC(C)C)NC(=O)[C@H](Cc1c[nH]cn1)NC(=O)[C@@H]1CSSC[C@H](N)C(=O)N[C@@H](CO)C(=O)N[C@H]2CSSC[C@H](NC(=O)[C@H](CCC(=O)O)NC(=O)[C@H](CCCCN)NC(=O)[C@H](CC(=O)O)NC(=O)[C@H](CCSC)NC(=O)[C@H](CC(C)C)NC(=O)[C@H](CO)NC(=O)[C@H](CO)NC2=O)C(=O)N[C@@H](C(C)C)C(=O)N[C@@H](Cc2ccc(O)cc2)C(=O)N[C@@H](Cc2ccccc2)C(=O)N1)C(=O)N[C@H](C(=O)N[C@@H](Cc1c[nH]c2ccccc12)C(=O)O)[C@@H](C)CC [endothelin-1]
proteolytic cleavage of Creb312 (formation of the nuclear form) (Creb312 [2]; [4]): formation of the proteolytically cleaved, nuclear form of Creb312

CNC[C@H](O)c1cccc(O)c1 [phenylephrine]
proteolytic cleavage of Creb312 (formation of the nuclear form) (Creb312 [2]; [4]): most strongly induced; also recorded: formation of the proteolytically cleaved, nuclear form of Creb312

N#CC(=C(/N)Sc1ccccc1N)/C(C#N)=C(\N)Sc1ccccc1N [U0126]
effect on formation of the proteolytically cleaved, nuclear form of Creb312 in response to mechanical stretch (Creb312 [1]): did not show any effect; also recorded: did not inhibit

Oc1c2ccccc2c2c3c(cccc13)N=N2 [SP600125]
effect on formation of the proteolytically cleaved, nuclear form of Creb312 in response to mechanical stretch (Creb312 [1]): did not inhibit

CC(C)NCC(O)c1ccc(O)c(O)c1 (centres unmarked) [isoproterenol]
proteolytic cleavage of Creb312 (formation of the nuclear form) (Creb312 [2]; [4]): most strongly induced; also recorded: formation of the proteolytically cleaved, nuclear form of Creb312

tunicamycin
proteolytic cleavage of Creb312 (formation of the nuclear form) (Creb312 [2]; [3]): to a lesser extend

angiotensin-2 (DRVYIHPF; Angiotensin-2; UniProt P01019 25-32, looked up) [hypertrophic agonist]
proteolytic cleavage of Creb312 (formation of the nuclear form) (Creb312 [2]; [4]): formation of the proteolytically cleaved, nuclear form of Creb312

O[C@H](CS)[C@H](O)CS (racemic) [DTT, dithiothreitol]
proteolytic cleavage of Creb312 (formation of the nuclear form) (Creb312 [2]; [3]): to a lesser extend

C[C@H]1CCC/C=C/[C@@H]2C[C@H](O)C[C@H]2[C@H](O)/C=C/C(=O)O1 [brefeldinA]
proteolytic cleavage of Creb312 (formation of the nuclear form) (Creb312 [2]; [3]): caused proteolytic cleavage of Creb312

B1: Creb312(N): nuclear form of Creb312, residues 1-376 of the full length Creb312 (SEQ ID NO: 3) (protein, listed as Homo sapiens)
chain: MEVLESGEQGVLQWDRKLSELSEPGDGEALMYHTHFSELLDEFSQNVLGQLLNDPFLSEKSVSMEVEPSPTSPAPLIQAEHSYSLCEEPRAQSPFTHITTSDSFNDDEVESEKWYLSTDFPSTSIKTEPVTDEPPPGLVPSVTLTITAISTPLEKEEPPLEMNTGVDSSCQTIIPKIKLEPHEVDQFLNFSPKEAPVDHLHLPPTPPSSHGSDSEGSLSPNPRLHPFSLPQTHSPSRAAPRAPSALSSSPLLTAPHKLQGSGPLVLTEEEKRTLIAEGYPIPTKLPLSKSEEKALKKIRRKIKNKISAQESRRKKKEYMDSLEKKVESCSTENLELRKKVEVLENTNRTLLQQLQKLQTLVMGKVSRTCKLAGTQT
ANF regulated luciferase gene expression (ANF promoter region): induced | BNP regulated luciferase gene expression (BNP promoter region; 2 kb promoter region of BNP, FIG. 8C): induced | BNP regulated luciferase gene expression (BNP promoter region; 135 bp promoter region of BNP, FIG. 8D): induced | fold activation of luciferase gene expression (BNP promoter region; (−135 to −115) BNP promoter region, 200 ng DNA, FIG. 10C): three fold

Source: patent US20100210713A1, “REGENERATION AND SURVIVAL OF CARDIAC PROGENITORS AND CARDIOMYOCYTES WITH A STRETCH ACTIVATED TRANSCRIPTION FACTOR” (THE GENERAL HOSPITAL CORPORATION, priority 2009, published 2010)
